Patent US11661439B2, “Peptide hydrogels and use thereof” (The United States of America, as represented by the …, priority 2017, dated 2023)
Non-standard residues stand in square brackets, D forms with d. Residues, ends and D or L forms follow the SMILES beside them.

Key:
[1] = TEM analysis of peptide fibrils; format: physicochemical; conditions: 30 independent measurements
Method: FIG. 4. Fibril visualization of β-hairpin peptide hydrogels. Transmission Electron Microscopy (TEM) images of peptide fibrils and frequency distributions determined from 30 independent measurements (scale bar=100 nm).
Transmission electron microscopy (TEM) analysis. The hydrogel nanostructure of the peptide gels was observed using a Hitachi H-7650 transmission electron microscope at a voltage of 80 kV. A 1 wt % solution of peptide and an equal volume of buffer (50 mM HEPES containing 300 mM NaCl, pH 7.4) was mixed and incubated overnight at 37° C. to allow for gelation. The next day, samples for TEM analysis were prepared by suspending 5 μL of the resulting peptide gel in 195 μL of water to yield a 40-fold dilution. Small amounts (5 μL) of each diluted gel solution were applied to separate carbon coated copper grids. After 1 min, the grid was washed with water. Then, a 1 w/v % uranyl acetate aqueous solution was placed on each grid for negative staining. Excess staining solution was blotted away, left to air dry, and the grids were imaged immediately.

[2] = system: human dermal fibroblasts (HDFs); experiment: 2D cell culture of HDFs on gel surfaces; format: cell-based; conditions: for cell adhesion of HDFs on gel surface: Essential 8 Medium or serum-free DMEM
Method: 2D cell culture on peptide gels. Peptides were initially dissolved in water at 1 wt % on ice and mixed with an equal volume of ice-cold 2×HEPES buffer (50 mM HEPES, 300 mM NaCl, pH 7.4). The peptide solution (50 μL per well) was transferred to a non-tissue culture treated 96-well plates and incubated at 37° C. to initiate gelation. After 1 hour, HDFs (2×10^4 cells per 200 μL, per well) in serum-free DMEM, 10% FBS supplemented DMEM, or Essential 8 Medium (Thermo Fisher Scientific) were seeded on the peptide gels and cultured for 4 days. Bovine type I collagen gels (0.3 wt %, 50 μL per well) were prepared in 96-well plates following manufacturer's instructions.
Cell viability assay. Cell viability was evaluated by live and dead cell staining after 2D and 3D cell culture. Serum-free DMEM containing 1 μM calcein-AM and 2 μM ethidium homodimer-1 was added to the cells (200 μL per well for 2D culture and 500 μL each to the top and bottom of the gels for 3D culture). After incubation at 37° C. for 30 min, live and dead cells were visualized using EVOS FL Auto Cell Imaging System (Thermo Fisher Scientific). For the pseudo-colored composite image of varying heights of encapsulated cells, images of the live-stained cells were captured every 5 μm of height. Then Z-stack images for each 100 μm were flattened using the EVOS software, and the flattened images were pseudo-colored and merged using ImageJ.
Cell proliferation assay. A cell proliferation assay was performed using Cell Counting Kit-8 (CCK-8, Dojindo Molecular Technologies) for 2D and 3D cell culture. Serum-free DMEM containing 10% CCK-8 was added to the gels (200 μL per well for 2D culture; 500 μL to the top of the gels for 3D culture) and incubated for 2 hours at 37° C. Subsequently, media were transferred to 96-well plates (150 μL per well) and their absorbance measured at 450 nm relative to control viabilities from day 0 for 2D cell culture and day 1 for 3D cell culture. Experiments were performed in triplicate.
Cytoskeleton staining. For 2D cell culture, the peptide and collagen gels (70 μL) were prepared as described above on the glass bottom of 35 mm dishes (7 mm glass diameter, MatTek). HDFs in Essential 8 Medium (1.5×10^5 cells per 3 mL) were added to the dishes and incubated at 37° C. for 24 hours. Cells were fixed and permeabilized with 4% paraformaldehyde and 0.1% Triton X-100 in PBS for 15 min, and then blocked with 1% BSA in PBS. Cells were incubated with anti-vinculin antibody (hVIN-1, Sigma) for 1 hour at room temperature. Then, a goat anti-mouse IgG (H+L) cross-adsorbed secondary antibody, Rhodamine Red-X (2 μg mL^−1, Thermo Fisher Scientific), Alexa Fluor 488 phalloidin (5 units mL^−1, Thermo Fisher Scientific), and Hoechst 33342 (5 μg mL^−1, Invitrogen) in PBS were added to the dishes and incubated for 1 hour at room temperature. After washing, cells were visualized using an EVOS FL Auto Cell Imaging System.

[3] = Rheology of cell-encapsulating gels after 4 days of 3D culture; format: physicochemical; conditions: 1000% strain for 30 s every 10 min
Description: FIGS. 7A-7E. Three-dimensional culturing of HDFs. HDFs were 3D cultured with 0.5 wt % peptide hydrogels or 0.3 wt % collagen hydrogels with Essential 8 Medium. (7A) Live and dead cells were visualized on days 1, 4, and 7, using calcein AM and ethidium homodimer-1 staining, respectively (scale bar=100 μm). (7B) Cell growth was monitored by quantifying cell viability on days 1, 4, and 7. Data are represented as mean±SD of three independent replicates. (7C) A pseudo-colored composite of varying depths (0-500 μm) of Z-stacked images of live cells stained with calcein AM in 0.5% AcVES3-RGDV hydrogels on day 4 (scale bar=100 μm). […] (7D) Z-stack image of cytoskeleton organization in the hydrogels on day 4 with actin and nuclei (scale bar=100 μm) stained. (7E) Shear-thinned recovery of cells encapsulated in 0.5 wt % AcVES3-RGDV hydrogel after 3D culturing for 4 days. Hydrogels were shear-thinned at 1000% strain for 30 s (indicated by dashed line) every 10 min and allowed to recover by reducing the strain to 0.2%.
Rheology measurements of cell-encapsulating gels after 4 days of 3D cell culturing were performed using 8-mm stainless steel parallel plate geometry with a 0.5 mm gap height. A cell-encapsulating gel (100 μL) in a transwell insert (for 24 well plates, Corning) was transferred to the rheometer plate previously equilibrated at 37° C. and oil was placed around the sample. […]

SMILES: CC(=O)N[C@H](C(=O)N[C@@H](CCC(=O)O)C(=O)N[C@H](C(=O)N[C@@H](CO)C(=O)N[C@H](C(=O)N[C@@H](CO)C(=O)N[C@H](C(=O)N[C@@H](CCC(=O)O)C(=O)N[C@H](C(=O)N1CCC[C@@H]1C(=O)N1CCC[C@H]1C(=O)N[C@H](C(=O)N[C@@H](CCC(=O)O)C(=O)N[C@H](C(=O)N[C@@H](CO)C(=O)N[C@H](C(=O)N[C@@H](CCC(=O)O)C(=O)N[C@H](C(=O)N[C@@H](CCC(=O)O)C(=O)N[C@H](C(=O)NCC(=O)NCC(=O)NCC(=O)NCC(=O)N[C@@H](CCCNC(=N)N)C(=O)NCC(=O)N[C@@H](CC(=O)O)C(=O)N[C@H](C(N)=O)C(C)C)C(C)C)C(C)C)C(C)C)C(C)C)[C@@H](C)O)C(C)C)C(C)C)C(C)C)C(C)C)C(C)C [AcVES3-RGDV] (Ac-VEVSVSVEV[dP]PTEVSVEVEVGGGGRGDV-NH2)
- average fibril width [1]: 4.0±0.4 nm
- cell proliferation of HDFs, 2D culture ([2]; Essential 8 Medium, up to day 4): proliferated to a similar degree as cells on collagen gels
- cytoskeleton organization and focal adhesions ([2]; day 1, Essential 8 Medium): promoted organization of actin stress fibers and focal contacts
- cell adhesion of HDFs on gel surface ([2]; day 1): strongly attached and spread
- cell adhesion of HDFs on gel surface ([2]; day 4): remained adherent and viable
- storage moduli after multiple physical disruptions [3]: constant
